# Test results from PubChem BioAssay (NCI).
#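 Grown in 96-well plates, cells were treated for 48 hours with each compound at five concentrations. Insufficient inhibition: endpoint recorded as highest concentration tested. At the GI50, growth is halved. TGI is the concentration that stops growth completely.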
# Experiments:
# Test in all cases: DTP human tumour cell line panel, 48 h
# [1] = tested on: SF-268 CNS
# [2] = tested on: NCI-H23 lung
# [3] = tested on: OVCAR-8 ovarian
# [4] = tested on: SN12C renal
# [5] = tested on: M14 melanoma
# [6] = tested on: SF-539 CNS
# [7] = tested on: HCT-116 colon
# [8] = tested on: LOX IMVI melanoma
# [9] = tested on: SW-620 colon
# [10] = tested on: MCF7 breast
Structure (SMILES),TGI [1] [µM],TGI [2] [µM],TGI [3] [µM],TGI [4] [µM],TGI [5] [µM],TGI [6] [µM],TGI [7] [µM],TGI [8] [µM],TGI [9] [µM],TGI [10] [µM],GI50 [7] [µM],GI50 [1] [µM],GI50 [2] [µM],GI50 [10] [µM],GI50 [8] [µM],GI50 [5] [µM],GI50 [6] [µM],GI50 [9] [µM]
C=CCNC(=S)N1CC(C)C(=O)Nc2cc(Cl)ccc21 (stereo unspecified),> 100,> 100,> 100,> 100,> 100,> 100,> 100,–,–,–,–,–,–,–,–,–,–,–
COc1cc2c3cc1Oc1c(O)c(OC)cc4c1C(Cc1ccc(O)c(c1)Oc1ccc(cc1)CC3N(C)CC2)N(C)CC4 (stereo unspecified),31.9,39,28.4,28.6,7.8,5.8,22.5,10.7,16.7,–,–,–,–,–,–,–,–,–
COc1cccc(C23CCCC(C2)NCC3Br)c1OC (stereo unspecified),> 100,> 100,> 100,> 100,> 100,–,> 100,> 100,> 100,57.3,–,–,–,–,–,–,–,–
CCOC(=O)C(=O)C=P(c1ccccc1)(c1ccccc1)c1ccccc1,> 100,> 100,> 100,> 100,> 100,> 100,> 100,> 100,> 100,–,–,–,–,–,–,–,–,–
CCOC(=O)c1cc(-n2nnc3ccccc32)cn1C,> 10,> 10,> 10,> 10,> 10,> 10,> 10,> 10,–,> 10,–,–,–,–,–,–,–,–
N#CC(N=Nc1ccccc1C(=O)O)C(N)=O (stereo unspecified),–,> 100,–,> 100,> 100,–,> 100,–,> 100,–,–,–,–,–,–,–,–,–
Cc1c[n+]2c3ccccc3c3ccccc3c2s1,3.27,3.9,28.8,15.5,35.4,16.6,> 70.1,41.9,> 75.5,–,–,–,–,–,–,–,–,–
Nc1ccc2[nH]c(-c3cccc(C(F)(F)F)c3)cc(=O)c2c1,–,> 100,> 100,> 100,> 100,53,> 100,> 100,> 100,> 100,52,–,–,–,–,–,–,–
COc1cc2c(c(OC)c1OC)-c1ccc(SC)c(=O)cc1C(CC(=O)Oc1cccc([N+](=O)[O-])c1)C2 (stereo unspecified),> 27.2,–,10.4,> 76.9,> 100,1.32,3.72,> 32.1,> 100,–,–,–,–,–,–,–,–,–
COCCN(CCNC(=O)c1cccc2c(N)c3cccc(C)c3nc12)CCOC,2.3,3.53,19,6.54,2.7,4.64,–,3.27,> 50.2,23.3,–,–,–,–,–,–,–,–
CNC(=O)NCNC(=O)NC,–,> 100,> 100,–,> 100,> 100,> 100,> 100,> 100,–,–,–,–,–,–,–,–,–
CCOP(=O)(OCC)/C(C#N)=C/c1cccn1C(C)C,> 100,> 100,> 100,> 100,> 100,> 100,> 100,> 100,> 100,–,–,–,–,–,–,–,–,–
CCC(C)C(N)C(=O)NC(CC(N)=O)C(=O)NC(CC(C)C)C(=O)NC(CCCCN)C(=O)NC(C)C(=O)NC(CC(C)C)C(=O)NC(C)C(=O)NC(C)C(=O)NC(CC(C)C)C(=O)NC(C)C(=O)NC(CCCCN)C(=O)NC(CCCCN)C(=O)NC(C(=O)NC(CC(C)C)C(N)=O)C(C)CC (stereo unspecified),14.7,29,34.3,26.4,8.64,11.3,29,35.3,37.4,–,–,–,–,–,–,–,–,–
Cc1cc(S(=O)(=O)N2CCNNC2=O)c(S)cc1Cl,> 100,–,> 100,> 100,> 100,> 100,–,> 100,> 100,> 100,–,–,–,–,–,–,–,–
CCCCn1c(CSc2ccc(Cl)cc2)c(C(=O)OCC)c2cc(OC)c(Br)cc21,> 100,> 100,> 100,> 100,> 100,–,> 100,> 100,> 100,–,–,–,–,–,–,–,–,–
COc1cccc(/C=N/NC(=O)CSCC(=O)N/N=C/c2cccc(OC)c2OC)c1OC,> 100,> 100,> 100,> 100,> 100,> 100,> 100,–,> 100,> 100,–,–,–,–,–,–,–,–
c1cc(-c2ccc(-c3ccc(-c4ccc(-c5ccncc5)o4)cc3)o2)ccn1,38.1,39.1,33.5,45.5,32.2,–,29.6,42.8,> 100,38.7,–,–,–,–,–,–,–,–
COc1cc(C(=O)O[C@H](C(=O)NCCCNC(=O)[C@@H](OC(=O)c2cc(OC)cc3c(C)cccc23)[C@]2(C)CO2)[C@]2(C)CO2)c2cccc(C)c2c1,–,0.0224,–,0.486,–,0.138,–,< 0.01,–,0.219,–,< 0.01,< 0.01,< 0.01,< 0.01,< 0.0486,< 0.0268,< 0.01
N#CCc1c(-c2ccccc2)n(S(=O)(=O)c2ccccc2)c2ccccc12,> 100,> 100,> 100,–,> 100,> 100,> 100,–,> 100,–,–,–,–,–,–,–,–,–
Clc1cccc(-c2sc(-c3ccsc3)cc2Cc2ccsc2)c1,> 10,> 10,> 10,> 10,> 10,–,–,> 10,> 10,> 10,–,–,–,–,–,–,–,–
CC(=O)Oc1cc(S(=O)(=O)Nc2n[nH]c(Nc3ccc(C)cc3)n2)c(S)cc1Cl,–,> 100,> 100,> 100,> 100,> 100,> 100,> 100,> 100,–,–,–,–,–,–,–,–,–
COC(=O)c1c(C(=O)OC)c2ccccn2c1-c1cc(OC)c(Br)c(=O)o1,> 100,> 100,> 100,> 100,> 100,> 100,> 100,> 100,> 100,–,–,–,–,–,–,–,–,–
NNC(=O)CC(=O)Nc1cccc(Cl)c1,> 100,> 100,> 100,> 100,–,> 100,> 100,> 100,> 100,> 100,–,–,–,–,–,–,–,–
